In patent publication US20170101383A1, “DIAMINOTRIAZINE DERIVATIVES AS HERBICIDES” (BASF SE, priority 2014, published 2017):

How the values were obtained:
Assay type in all cases: in vivo
[1] = test system: Amaranthus retroflexus; assay: greenhouse post-emergence treatment, AMARE; settings: for herbicidal activity against AMARE / pest or weed control at 500 g/ha: 0.500 kg/ha; for herbicidal activity against AMARE: scale 0 to 100
Source text: (§1) The seeds of the test plants were sown separately for each species. For the post-emergence treatment, the test plants were first grown to a height of 3 to 15 cm, depending on the plant habit, and only then treated with the active ingredients which had been suspended or emulsified in water. For this purpose, the test plants were either sown directly and grown in the same containers, or they were first grown separately as seedlings and transplanted into the test containers a few days prior to treatment. Depending on the species, the plants were kept at 10-25° C. or 20-35° C., respectively. The test period extended over 2 to 4 weeks. During this time, the plants were tended, and their response to the individual treatments was evaluated. Evaluation was carried out using a scale from 0 to 100. 100 means no emergence of the plants, or complete destruction of at least the aerial moieties, and 0 means no damage, or normal course of growth. A moderate herbicidal activity is given at values of at least 60, a good herbicidal activity is given at values of at least 70, and a very good herbicidal activity is given at values of at least 85. The plants used in the greenhouse experiments were of the following species: [table]

[2] = test system: Echinocloa crus-galli; assay: greenhouse post-emergence treatment, ECHCG; settings: scale 0 to 100
Source text: as §1

[3] = test system: Setaria faberi; assay: greenhouse post-emergence treatment, SETFA; settings: scale 0 to 100
Source text: as §1

[4] = test system: Alopecurus myosuroides; assay: greenhouse pre-emergence treatment, ALOMY; settings: scale 0 to 100
Source text: (§2) The seeds of the test plants were sown separately for each species. For the pre-emergence treatment, the active ingredients, which had been suspended or emulsified in water, were applied directly after sowing by means of finely distributing nozzles. The containers were irrigated gently to promote germination and growth and subsequently covered with transparent plastic hoods until the plants had rooted. This cover caused uniform germination of the test plants, unless this had been impaired by the active ingredients. Depending on the species, the plants were kept at 10-25° C. or 20-35° C., respectively. The test period extended over 2 to 4 weeks. During this time, the plants were tended, and their response to the individual treatments was evaluated. Evaluation was carried out using a scale from 0 to 100. 100 means no emergence of the plants, or complete destruction of at least the aerial moieties, and 0 means no damage, or normal course of growth. A moderate herbicidal activity is given at values of at least 60, a good herbicidal activity is given at values of at least 70, and a very good herbicidal activity is given at values of at least 85. The plants used in the greenhouse experiments were of the following species: [table]

[5] = test system: Amaranthus retroflexus; assay: greenhouse pre-emergence treatment, AMARE; settings: scale 0 to 100
Source text: as §2

[6] = test system: Apera spica-venti; assay: greenhouse pre-emergence treatment, APESV; settings: scale 0 to 100
Source text: as §2

[7] = test system: Echinocloa crus-galli; assay: greenhouse pre-emergence treatment, ECHCG; settings: 0.500 kg/ha, scale 0 to 100
Source text: as §2

[8] = test system: Abutilon theophrasti; assay: greenhouse pre-emergence treatment, ABUTH; settings: 0.500 kg/ha, scale 0 to 100
Source text: as §2

[9] = test system: Apera spica-venti; assay: greenhouse post-emergence treatment, APESV; settings: 0.500 kg/ha, scale 0 to 100
Source text: as §1

[10] = test system: Setaria faberi; assay: greenhouse pre-emergence treatment, SETFA; settings: 0.500 kg/ha, scale 0 to 100
Source text: as §2

[11] = test system: Abutilon theophrasti; assay: greenhouse post-emergence treatment, ABUTH; settings: 0.500 kg/ha, scale 0 to 100
Source text: as §1

[12] = Amaranthus retroflexus, scale 0 to 100, read-out: herbicidal activity against AMARE

| SMILES | herbicidal activity against AMARE ([5]; 0.500 kg/ha) | herbicidal activity against APESV ([6]; 0.500 kg/ha) | herbicidal activity against ABUTH [8] | herbicidal activity against APESV [9] | herbicidal activity against SETFA ([3]; 0.500 kg/ha) | herbicidal activity against ALOMY ([4]; 0.500 kg/ha) | herbicidal activity against SETFA [10] | pest or weed control at 500 g/ha [1, 12] | further results |
| --- | --- | --- | --- | --- | --- | --- | --- | --- | --- |
| Nc1nc(Nc2c(F)c(F)c(F)c(F)c2F)nc(N2CCCCC2)n1 [Example 5] |  |  |  |  |  |  |  |  | pest or weed control at 1000 g/ha ([1]; Amaranthus retroflexus, 1.000 kg/ha, scale 0 to 100, read-out: herbicidal activity against AMARE): ≥ 85%; herbicidal activity against ECHCG ([2]; 1.000 kg/ha): very good (a very good herbicidal activity is given at values of at least 85); herbicidal activity against SETFA ([3]; 1.000 kg/ha): very good (a very good herbicidal activity is given at values of at least 85); herbicidal activity against ALOMY ([4]; 1.000 kg/ha): very good (a very good herbicidal activity is given at values of at least 85); herbicidal activity against AMARE ([5]; 1.000 kg/ha): very good (a very good herbicidal activity is given at values of at least 85); herbicidal activity against APESV ([6]; 1.000 kg/ha): very good (a very good herbicidal activity is given at values of at least 85) |
| CC1CCC(C)N1c1nc(N)nc(Nc2c(F)c(F)cc(F)c2F)n1 (stereo not shown) [Example 18] | very good (a very good herbicidal activity is given at values of at least 85) | very good (a very good herbicidal activity is given at values of at least 85) |  |  |  |  |  |  | herbicidal activity against ECHCG [7]: very good (a very good herbicidal activity is given at values of at least 85) |
| Nc1nc(Nc2c(F)c(F)c(F)c(F)c2F)nc(N2CCOCC2)n1 [Example 23] | very good (a very good herbicidal activity is given at values of at least 85) | very good (a very good herbicidal activity is given at values of at least 85) | very good (a very good herbicidal activity is given at values of at least 85) |  |  |  |  |  |  |
| COC[C@H]1CCCN1c1nc(N)nc(Nc2c(F)c(F)c(F)c(F)c2F)n1 [Example 25] | good to very good | good to very good |  | very good (a very good herbicidal activity is given at values of at least 85) | very good (a very good herbicidal activity is given at values of at least 85) | good to very good | good to very good |  | herbicidal activity against AMARE [1]: very good (a very good herbicidal activity is given at values of at least 85) |
| COC[C@H]1CCCN1c1nc(N)nc(Nc2c(F)c(F)cc(F)c2F)n1 [Example 26] | very good (a very good herbicidal activity is given at values of at least 85) | very good (a very good herbicidal activity is given at values of at least 85) |  | very good (a very good herbicidal activity is given at values of at least 85) | very good (a very good herbicidal activity is given at values of at least 85) | very good (a very good herbicidal activity is given at values of at least 85) | very good (a very good herbicidal activity is given at values of at least 85) |  | herbicidal activity against AMARE [1]: very good (a very good herbicidal activity is given at values of at least 85) |
| CON(C)c1nc(N)nc(Nc2c(F)c(F)c(F)c(F)c2F)n1 [Example 27] | very good (a very good herbicidal activity is given at values of at least 85) | very good (a very good herbicidal activity is given at values of at least 85) | very good (a very good herbicidal activity is given at values of at least 85) |  | very good (a very good herbicidal activity is given at values of at least 85) | very good (a very good herbicidal activity is given at values of at least 85) | very good (a very good herbicidal activity is given at values of at least 85) | ≥ 85% | herbicidal activity against ABUTH [11]: very good (a very good herbicidal activity is given at values of at least 85) |
| CON(C)c1nc(N)nc(Nc2c(F)c(F)cc(F)c2F)n1 [Example 28] | very good (a very good herbicidal activity is given at values of at least 85) | very good (a very good herbicidal activity is given at values of at least 85) | very good (a very good herbicidal activity is given at values of at least 85) |  | very good (a very good herbicidal activity is given at values of at least 85) | very good (a very good herbicidal activity is given at values of at least 85) | very good (a very good herbicidal activity is given at values of at least 85) | ≥ 85% | herbicidal activity against ABUTH [11]: very good (a very good herbicidal activity is given at values of at least 85) |
| COC[C@@H]1CCCN1c1nc(N)nc(Nc2c(F)c(F)cc(F)c2F)n1 [Example 30] | very good (a very good herbicidal activity is given at values of at least 85) | very good (a very good herbicidal activity is given at values of at least 85) |  | very good (a very good herbicidal activity is given at values of at least 85) |  |  |  |  | herbicidal activity against AMARE [1]: very good (a very good herbicidal activity is given at values of at least 85) |
| COCC1CCCN1c1nc(N)nc(Nc2c(F)c(F)cc(F)c2F)n1 (stereo not shown) [Example 32] | good to very good | good to very good |  | very good (a very good herbicidal activity is given at values of at least 85) | very good (a very good herbicidal activity is given at values of at least 85) | good to very good | good to very good | ≥ 85% |  |
| Nc1nc(Nc2c(F)c(F)c(F)c(F)c2F)nc(N2CCC2)n1 [Example 33] | very good (a very good herbicidal activity is given at values of at least 85) |  | very good (a very good herbicidal activity is given at values of at least 85) |  |  |  | very good (a very good herbicidal activity is given at values of at least 85) | ≥ 85% | herbicidal activity against ABUTH [11]: very good (a very good herbicidal activity is given at values of at least 85); herbicidal activity against ECHCG ([2]; 0.500 kg/ha): very good (a very good herbicidal activity is given at values of at least 85); herbicidal activity against ECHCG [7]: very good (a very good herbicidal activity is given at values of at least 85) |
| CCN(CC)c1nc(N)nc(Nc2c(F)c(F)cc(F)c2F)n1 [Example 36] | good to very good | good to very good |  | very good (a very good herbicidal activity is given at values of at least 85) |  |  |  | ≥ 85% |  |
